# Source: ChEMBL document CHEMBL1201862, “PubChem BioAssay data set” (2004)
# Active and inactive are the calls of the source. Cut-off read from the data, not from the text of the source: actives have a measured IC50 and inactives only a lower limit.
# Target: Envelope glycoprotein gp160 (Human immunodeficiency virus 1, UniProt Q6QLK5)
# Assay: inhibitors of HIV fusion peptide binding, primary screen, biochemical, uHTS, fluorescence dequenching (AID 1986)
# Chain of Envelope glycoprotein gp160 (Q6QLK5 whole entry, the tested form may be a part): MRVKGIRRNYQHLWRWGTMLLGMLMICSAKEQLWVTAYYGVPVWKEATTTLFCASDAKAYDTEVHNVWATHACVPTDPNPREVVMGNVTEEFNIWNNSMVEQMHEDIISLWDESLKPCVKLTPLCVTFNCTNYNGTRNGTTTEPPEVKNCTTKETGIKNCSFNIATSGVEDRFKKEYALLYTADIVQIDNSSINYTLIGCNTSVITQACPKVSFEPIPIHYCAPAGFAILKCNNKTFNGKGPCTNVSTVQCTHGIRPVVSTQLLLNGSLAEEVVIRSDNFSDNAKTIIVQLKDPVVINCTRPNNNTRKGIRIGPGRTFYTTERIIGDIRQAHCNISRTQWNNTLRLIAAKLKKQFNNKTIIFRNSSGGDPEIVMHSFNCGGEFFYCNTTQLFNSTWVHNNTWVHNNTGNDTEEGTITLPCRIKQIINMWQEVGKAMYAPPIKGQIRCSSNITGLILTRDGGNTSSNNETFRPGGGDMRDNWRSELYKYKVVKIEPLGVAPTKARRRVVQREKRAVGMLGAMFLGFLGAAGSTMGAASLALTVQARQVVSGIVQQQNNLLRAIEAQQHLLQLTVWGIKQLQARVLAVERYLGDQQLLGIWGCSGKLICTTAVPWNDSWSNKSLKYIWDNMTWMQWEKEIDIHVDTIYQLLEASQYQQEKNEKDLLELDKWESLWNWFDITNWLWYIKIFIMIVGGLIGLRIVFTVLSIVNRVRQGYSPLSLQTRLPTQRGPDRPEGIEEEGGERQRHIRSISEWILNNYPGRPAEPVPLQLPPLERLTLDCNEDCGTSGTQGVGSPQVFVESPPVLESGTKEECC
compound,measurement,value
O=C(Nc1ccc(C(=O)O)cc1)/C(=C\C=C\c1ccccc1)NC(=O)c1cccc(Br)c1,IC50,22.6 µM (active)
